# How the values were obtained:
# DRG cells = assay: Current-clamp membrane potential in DRG cells; format: cell-based, rat; conditions: for Membrane potential (mV): current clamp
# Method: (§1) Experiments were performed on adult female Sprague Dawley rats. A population of unidentified DRG cells and a population of DRG neurons that innervate the urinary bladder were labeled by retrograde axonal transport of the fluorescent dye, Fast Blue (4% w/v) (Polyloy, Gross Umstadt, Germany), injected into the wall of the bladder in halothane-anesthetized animals 7 days before the dissociation. The dye was injected with a 28 gauge needle at three to six sites on the dorsal surface of the organ (5-6 μL per site, total volume of 20-30 μL). Each injection site was washed with saline to minimize contamination of adjacent organs with the dye.
# (§2) Freshly dissociated neurons from DRG were prepared from halothane-anesthetized animals. L6 and S1 DRG were dissected from animals and then dissociated in a shaking bath for 25 minutes at 35° C. with 5 mL DMEM (Sigma) containing 0.3 mg/mL trypsin (Type 3, Sigma), 1 mg/mL collagenase (Type 1, Sigma), and 0.1 mg/mL deoxyribonuclease (Type 4, Sigma). Trypsin inhibitor (Type 2a, Sigma) was then added thereto to neutralize the activity of trypsin. Individual DRG cell bodies were isolated by trituration and then plated on a poly-L-lysine-coated 35 mm Petri dishes.
# (§3) Dye-labeled primary afferent neurons that innervate the urinary bladder were identified using an inverted phase-contrast microscope (Nikon, Tokyo, Japan) with fluorescent attachments (UV-1A filter; excitation wavelength, 365 nm). Gigaohm-seal whole-cell recordings were performed within 6-8 hours after cell dissociation at room temperature (20-22° C.) on each labeled neuron in a culture dish that usually contained three to seven labeled cells among a few hundred unlabeled neurons. The internal solution contained (in mmol/L): KCl 140, CaCl2 1, MgCl2 2, EGTA 11, HEPES 10, Mg-ATP 2, and Tris-GTP 0.4 adjusted to pH 7.4 with KOH. Patch electrodes had resistances of 1-4 M Ω when filled with the internal solution. Neurons were superfused at a flow rate of 1.5 mL/minutes with an external solution containing (in mmol/L): NaCl 150, KCl 5, CaCl2 2.5, MgCl2 1, HEPES 10, and D-glucose 10, adjusted to pH 7.4 with NaOH. All recordings were made with an Axopatch-1D patch-clamp amplifier (Axon Instruments, Foster City, Calif.), and data were acquired and analyzed by PCLAMP software (Axon Instruments).
# In current-clamp recordings, membrane potential of DRG cells were measured before and after compound applications. The membrane potentials were normalized to control (before addition of the compound).
# [1] = tested on: delayed rectifier K^+ currents; assay: Voltage-clamp outward K^+ currents at HP −20 mV in unidentified DRG neurons; format: cell-based, rat; conditions: for K^+ current at HP: −20 mV, relative value (before compound = 1): unidentified DRG neurons
# Method: as §1, with “First and second series of the experiments were performed, respectively, in unidentified DRG neurons and a specific” for “A”, “of” for “of unidentified”, “neurons innervating the urinary bladder. The” for “cells and a”
# as §2
# as §3, with “performed” for “performed within 6-8 hours after cell dissociation”, “MΩ” for “M Ω”
# In voltage-clamp recordings, outward K^+ currents and inward Na^+ currents were measured. For the isolation of K^+ currents, the external solution was changed to one containing (in mmol/L): choline-Cl 150, KOH 5, CaCl2 0.03, HEPES 10, Mg(OH)2 3, and D-glucose 10, adjusted to pH 7.4 with HCl.
# In first series of experiments using unidentified DRG neurons, outward K^+ currents were evoked by voltage steps to +60 mV, 800 ms long from a holding potentials of −90 mV, this was followed by a 1-second conditioning prepulse to −20 mV followed by a second pulse to +60 mV, identical to the first in the sequence. In the second series of experiments using Fast Blue-labeled bladder afferent neurons, slowly-inactivating A-type K^+ currents were isolated by. subtraction of outward K^+ currents activated from a holding potential of −40 mV (on the condition of inactivation of the majority of slowly-inactivating A-type K^+ currents) from those activated from a holding potential of −120 mV (on the condition of full activation of slowly-inactivating A-type K^+ currents). A compound was added cumulatively, starting with a lower concentration. Currents were measured at the maximum (peak) and normalized to control (before addition of the compound).
smiles,measurement,setting,value
"C[C@](O)(C(=O)Nc1cccc2c1C(=O)c1sccc1CS2(=O)=O)C(F)(F)F [Compound 1, (S)-(+)-N-(5,5-dioxido-10-oxo-4,10-dihydrothieno[3,2-c][l]benzothiepin-9-yl)-3,3,3-trifluoro-2-hydroxy-2-methylpropanamide]",effect on membrane potential,DRG cells,hyperpolarization
same,Membrane potential (mV),DRG cells; 1.0 × 10^−6 mol/L,−53.67 ± 0.74 mV
same,Membrane potential (mV),DRG cells; 1.0 × 10^−7 mol/L,−57.17 ± 0.53 mV
same,Membrane potential (mV),DRG cells; 1.0 × 10^−8 mol/L,−49.80 ± 0.65 mV
same,Membrane potential (mV),DRG cells; 1.0 × 10^−9 mol/L,−48.10 ± 0.48 mV
same,Membrane potential (mV),DRG cells; 5.0 × 10^−4 mol/L,−42.67 ± 1.46 mV
same,Membrane potential (mV),DRG cells; 5.0 × 10^−5 mol/L,−48.50 ± 1.28 mV
same,Membrane potential (mV),DRG cells; 5.0 × 10^−6 mol/L,−50.50 ± 0.88 mV
same,"K^+ current at HP: −20 mV, relative value","[1]; 1.0 × 10^−5 mol/L, in the presence of 5 μmol/L verapamil",1.00 ± 0.02
same,"K^+ current at HP: −20 mV, relative value","[1]; 1.0 × 10^−5 mol/L, in the presence of 20 mmol/L tetraethylammonium",1.01 ± 0.02
same,"K^+ current at HP: −20 mV, relative value (before compound = 1)",[1]; 1.0 × 10^−5 mol/L,0.88 ± 0.07
same,"K^+ current at HP: −20 mV, relative value","[1]; 1.0 × 10^−6 mol/L, in the presence of 5 μmol/L verapamil",1.00 ± 0.01
same,"K^+ current at HP: −20 mV, relative value","[1]; 1.0 × 10^−6 mol/L, in the presence of 20 mmol/L tetraethylammonium",1.00 ± 0.00
same,"K^+ current at HP: −20 mV, relative value (before compound = 1)",[1]; 1.0 × 10^−6 mol/L,1.00 ± 0.02
same,"K^+ current at HP: −20 mV, relative value","[1]; 1.0 × 10^−7 mol/L, in the presence of 5 μmol/L verapamil",1.00 ± 0.01
same,"K^+ current at HP: −20 mV, relative value","[1]; 1.0 × 10^−7 mol/L, in the presence of 20 mmol/L tetraethylammonium",0.99 ± 0.02
same,"K^+ current at HP: −20 mV, relative value (before compound = 1)",[1]; 1.0 × 10^−7 mol/L,1.02 ± 0.01
same,"K^+ current at HP: −20 mV, relative value (before compound = 1)",[1]; 1.0 × 10^−8 mol/L,0.98 ± 0.04
same,"K^+ current at HP: −20 mV, relative value (before compound = 1)",[1]; 2.5 × 10^−8 mol/L,1.01 ± 0.03
same,"K^+ current at HP: −20 mV, relative value","[1]; 5.0 × 10^−4 mol/L, in the presence of 5 μmol/L verapamil",0.83 ± 0.06
same,"K^+ current at HP: −20 mV, relative value","[1]; 5.0 × 10^−4 mol/L, in the presence of 20 mmol/L tetraethylammonium",0.25 ± 0.04
same,"K^+ current at HP: −20 mV, relative value","[1]; 5.0 × 10^−4 mol/L, in the presence of 60 mmol/L tetraethylammonium",0.54 ± 0.02
same,"K^+ current at HP: −20 mV, relative value","[1]; 5.0 × 10^−5 mol/L, in the presence of 5 μmol/L verapamil",0.98 ± 0.01
same,"K^+ current at HP: −20 mV, relative value","[1]; 5.0 × 10^−5 mol/L, in the presence of 20 mmol/L tetraethylammonium",0.84 ± 0.06
same,"K^+ current at HP: −20 mV, relative value","[1]; 5.0 × 10^−5 mol/L, in the presence of 60 mmol/L tetraethylammonium",0.95 ± 0.03
same,"K^+ current at HP: −20 mV, relative value (before compound = 1)",[1]; 5.0 × 10^−5 mol/L,0.81 ± 0.08
same,"K^+ current at HP: −20 mV, relative value","[1]; 5.0 × 10^−6 mol/L, in the presence of 5 μmol/L verapamil",1.01 ± 0.01
same,"K^+ current at HP: −20 mV, relative value","[1]; 5.0 × 10^−6 mol/L, in the presence of 20 mmol/L tetraethylammonium",0.98 ± 0.01
same,"K^+ current at HP: −20 mV, relative value","[1]; 5.0 × 10^−6 mol/L, in the presence of 60 mmol/L tetraethylammonium",0.97 ± 0.02
same,"K^+ current at HP: −20 mV, relative value","[1]; 5.0 × 10^−7 mol/L, in the presence of 5 μmol/L verapamil",1.00 ± 0.01
same,"K^+ current at HP: −20 mV, relative value","[1]; 5.0 × 10^−7 mol/L, in the presence of 20 mmol/L tetraethylammonium",1.01 ± 0.01
same,"K^+ current at HP: −20 mV, relative value","[1]; 5.0 × 10^−7 mol/L, in the presence of 60 mmol/L tetraethylammonium",0.97 ± 0.03
same,"K^+ current at HP: −20 mV, relative value (before compound = 1)",[1]; 5.0 × 10^−7 mol/L,1.01 ± 0.02
same,"K^+ current at HP: −20 mV, relative value","[1]; 5.0 × 10^−8 mol/L, in the presence of 5 μmol/L verapamil",1.00 ± 0.00
same,"K^+ current at HP: −20 mV, relative value","[1]; 5.0 × 10^−8 mol/L, in the presence of 20 mmol/L tetraethylammonium",0.99 ± 0.01
same,"K^+ current at HP: −20 mV, relative value","[1]; 5.0 × 10^−8 mol/L, in the presence of 60 mmol/L tetraethylammonium",1.00 ± 0.01
same,"K^+ current at HP: −20 mV, relative value (before compound = 1)",[1]; 5.0 × 10^−8 mol/L,1.00 ± 0.01
same,"K^+ current at HP: −20 mV, relative value","[1]; 5.0 × 10^−9 mol/L, in the presence of 20 mmol/L tetraethylammonium",0.99 ± 0.00
same,"K^+ current at HP: −20 mV, relative value (before compound = 1)",[1]; 5.0 × 10^−9 mol/L,0.98 ± 0.02
same,influence upon delayed rectifier K^+ currents,"[1]; unidentified DRG cells, HP −20 mV",does not have no influences (little influences)

# Source: patent US20040132803A1, “Agent for the treatment of overactive bladder” (priority 2003, published 2004)
